Measurements as given in ChEMBL document CHEMBL1158030, “Endophyte fungal isolates from Podophyllum peltatum produce podophyllotoxin” (J Nat Prod, 2006).
In brackets after ≈: the same amount, converted by molar mass.

Assay: Toxicity in brine shrimp after 24 hrs
Format: organism-based
Conditions: artemia, in vivo; read-out: LD50

Molecule `COc1cc([C@@H]2c3cc4c(cc3[C@H](O)[C@H]3COC(=O)[C@H]23)OCO4)cc(OC)c1OC` [PODOFILOX] has an LC50 at 24 h of 2 µg/mL (≈ 4.83 µM).
